Source: patent publication US20100047332A1, “Treatments for burns using thyroid hormone compound in a human” (priority 2005, published 2010)

What was measured:
[1] = tested on: deep dermal pressure ulcer; experiment: TriAc cream on a deep dermal pressure ulcer; format: in vivo, human
Text: The patient was a active triathlete who had developed a bicycle seat ulcer which was a persistent fissure running from coccyx almost to the anus. The deep dermal pressure ulcer resulted from pressure due to a bicycle seat. This pressure injury frequently was oozing and was generally moist. The fissure was 1-2 mm wide and 2-3 mm deep. It was resistant to a variety of over the counter steroid and anti-fungal creams and lanolin. […] The cream was applied for 4 treatments on an every other day basis, using barely enough to treat the area about 20 cm^2, sometimes every third day. […] Skin has remained intact for close to 6 months. The dermal ulcer in this example was non healing until the cream was used on an intermittent basis

[2] = tested on: cellulite and subcutaneous fat; experiment: TriAc cream before exercise for cellulite; format: in vivo, human; conditions: after twelve applications
Description: TriAc-containing creams were produced by dissolving TriAc in a suitable solvent and adding it to a cream base. […] TriAc could also be added to the oil phase of a water in oil or a oil in water cream base, or charged in a solid lipid nanoparticle, or applied as a liposome, or a matrix patch as is known in the art.
The cream was only applied before exercise. More specifically, application occurred between 30 minutes and 2 hours before mild exercise. The mild exercise involved the underlying musculature, and included long walks, jogging, or gym exercises involving light resistance exercises, or stairmasters, treadmills and the like.
The amount of cream applied was always less than 5 ml, just sufficient to cover the area, usually less than 2 ml. […] For most of the applications, the amount of cream applied was less than 3 ml and usually less than 1.5 ml. In these applications, less than 0.4 mg was applied and as little as 80 μg was applied in at least some of the applications. Exercise occurred one to three times a week. Consequently, the cream was only applied one to three times a week. Two grams of cream, approximately 2 mls, was sufficient to cover the buttocks, back of thighs, and anterior waist area.

SMILES: O=C(O)Cc1cc(I)c(Oc2ccc(O)c(I)c2)c(I)c1 [TriAc, [4-(4-hydroxy-3-iodophenoxy)-3,5-diiodophenyl]acetic acid]
- healing of the ulcer ([1]; 0.006% cream, 4 treatments every other day, over the next few weeks): substantial healing
- time skin has remained intact ([1]; after treatment with 0.006% cream): ~6 months
- cellulite ([2]; 8 to 16 mg TriAc per 100 ml, before exercise): little evidence of cellulite remained
- contour of the buttocks [2]: smaller and smoother
